# pIC50: −log10 of the molar value.
# Tests used:
# [1] = tested on: AChE; settings: cited from earlier work
# [2] = target: T1, butyrylcholinesterase (BChE) from equine serum (Equus caballus, UniProt P81908); assay: biochemical; assay type: biochemical; settings: for BChE Inhibition (%): fractions/compounds at the concentrations in which they are present in EO, average of three assays
# T1 construct: butyrylcholinesterase (BChE) from equine serum; purchased Merck Life Science S.r.l; (Milan, Italy); host or cells: equine serum
# Experimental: (§1) The protocol used in this study was that of Rhee et al., with slight modifications. The following buffers were used: buffer A (50 mM Tris-HCl pH 8), buffer B (50 mM Tris-HCl pH 8, with the addition of 0.1% of bovine albumin and 0.1% of TWEEN20), and buffer C (50 mM Tris-HCl pH 8, with the addition of 0.1 M of NaCl and 0.02 M of MgCl2 6H2O). The enzyme solution of 0.22 U/mL was prepared in buffer B. The acetylthiocholine iodide (ATCI) solution of 1.5 mM was prepared in Millipore water, while the butyrylthiocholine iodide (BTCI) solution was prepared in buffer A. Ellman’s reagent solution at 3 mM was prepared in buffer C.
# (§2) The reaction mixture was incubated at 30 °C for 6 min. The absorbance values were measured at 405 nm after incubation. […] The control and sample blank solutions were prepared by replacing 150 µL of the enzyme solution with 150 µL of buffer A.
# (§3) The percentage of the AChE or BChE inhibition was measured according to the equation below:% Inhibition = ΔA (Control) − ΔA (Sample)/ΔA (Control) × 100 ΔA (Control) = A412 (Control) − A412 (Control Blank) ΔA(Sample) = A412 (Sample) − A412 (Sample Blank)
# (§4) The concentration–response curve was determined for each inhibitor by plotting the inhibitory activity against AChE or BChE as a function of the inhibitor concentration in the reaction mixture.
# (§5) The Microsoft Excel programme was used for the Anova test. For the IC50 calculation, an online programme from AAT Bioquest was used (https://www.aatbio.com/tools/ic50-calculator, accessed on 10 May 2023).
# [3] = target: T2, acetylcholinesterase (AChE) from Electrophorus electricus (Electrophorus electricus, UniProt O42275); assay: biochemical; assay type: biochemical; settings: for AChE Inhibition (%): fractions/compounds at the concentrations in which they are present in EO, average of three assays; for IC50 AChE: ± standard deviation, n = 3
# T2 construct: purchased Merck Life Science S.r.l; (Milan, Italy)
# Experimental: as §1, §2, §3, §4, §5
# [4] = tested on: BChE; parameters: method as in doi:10.1016/j.jff.2020.103892; settings: cited from earlier work
# T1 sequence (P81908 whole entry): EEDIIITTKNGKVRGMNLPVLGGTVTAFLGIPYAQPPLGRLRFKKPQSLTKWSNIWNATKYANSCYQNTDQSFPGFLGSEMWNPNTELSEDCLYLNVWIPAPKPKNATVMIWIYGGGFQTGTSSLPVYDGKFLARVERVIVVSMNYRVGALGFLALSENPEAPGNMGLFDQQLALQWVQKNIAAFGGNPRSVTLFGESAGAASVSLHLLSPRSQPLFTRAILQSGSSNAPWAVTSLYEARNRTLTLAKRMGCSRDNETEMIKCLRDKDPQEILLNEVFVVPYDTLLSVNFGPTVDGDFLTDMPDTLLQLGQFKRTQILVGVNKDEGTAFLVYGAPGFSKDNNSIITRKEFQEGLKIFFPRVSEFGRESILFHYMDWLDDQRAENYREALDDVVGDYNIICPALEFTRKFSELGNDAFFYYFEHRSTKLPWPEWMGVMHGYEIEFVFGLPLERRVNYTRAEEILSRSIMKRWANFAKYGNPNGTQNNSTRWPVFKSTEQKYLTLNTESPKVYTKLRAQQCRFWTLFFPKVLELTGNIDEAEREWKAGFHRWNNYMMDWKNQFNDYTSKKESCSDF
# T2 sequence (O42275 24-633): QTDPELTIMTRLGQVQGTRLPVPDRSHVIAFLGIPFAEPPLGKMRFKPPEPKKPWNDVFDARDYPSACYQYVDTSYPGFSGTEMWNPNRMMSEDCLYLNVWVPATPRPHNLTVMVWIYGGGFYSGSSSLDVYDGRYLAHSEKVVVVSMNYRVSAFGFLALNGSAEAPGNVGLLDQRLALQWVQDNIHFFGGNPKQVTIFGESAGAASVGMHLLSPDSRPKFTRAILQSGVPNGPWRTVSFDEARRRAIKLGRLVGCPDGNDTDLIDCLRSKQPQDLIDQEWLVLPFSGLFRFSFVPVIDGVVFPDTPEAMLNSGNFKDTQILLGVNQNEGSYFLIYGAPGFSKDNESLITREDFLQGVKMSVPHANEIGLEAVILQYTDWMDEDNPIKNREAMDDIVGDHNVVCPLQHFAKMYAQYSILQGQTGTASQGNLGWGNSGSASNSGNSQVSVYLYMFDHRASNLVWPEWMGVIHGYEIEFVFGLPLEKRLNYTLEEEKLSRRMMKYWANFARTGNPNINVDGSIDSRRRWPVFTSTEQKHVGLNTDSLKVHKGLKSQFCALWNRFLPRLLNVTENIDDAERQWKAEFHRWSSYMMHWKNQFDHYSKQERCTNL
compound,measurement,setting,value
"CC12CCC(CC1)C(C)(C)O2 [1,8-cineole]",AChE inhibition,[1]; mechanism still unclear,known to actively inhibit AChE
same,IC50 BChE,"[2]; ± standard deviation, n = 3",inactive inhibitor of BChE
same,IC50 BChE,"[2]; ± standard deviation, n = 3, listed as 1,8-Cineole",not active
same,pIC50,[3],4.04
same,AChE Inhibition (%),[3],55.4%
"C=CC(C)(O)CCC=C(C)C (stereo not shown) [Linalool, linalool]",BChE Inhibition (%),[2],5.0%
same,BChE Inhibition (%),[2]; listed as linalool,active
"C=CC(C)(CCC=C(C)C)OC(C)=O (stereo not shown) [Linalyl acetate, linalyl acetate]",BChE Inhibition (%),[2],10.3%
same,BChE Inhibition (%),[2]; listed as linalyl acetate,active
CC(=O)OC(C)(C)C1CC=C(C)CC1 (stereo not drawn) [α-terpinyl acetate],Type of inhibition of BChE,[4],mixed inhibition
same,Type of inhibition of AChE,[1],competitive inhibition
same,BChE Inhibition (%),[2],39.0%
same,pIC50,"[2]; ± standard deviation, n = 3",3.95
same,AChE Inhibition (%),[3],17.0%
same,IC50 AChE,[3],50% inhibition was never achieved
same,IC50 AChE,[3]; listed as α-Terpinyl acetate,Activity lower than 50%

# — article PMC10575282, “Elettaria cardamomum (L.) Maton Essential Oil: An Interesting Source of Bioactive Specialized Metabolites as Inhibitors of Acetylcholinesterase and Butyrylcholinesterase” (Plants, 2023)
